Experimental data published in article PMC4113456, “Atypical Signaling and Functional Desensitization Response of MAS Receptor to Peptide Ligands” (PLoS ONE, 2014).
Non-standard residues stand in square brackets, D forms with d. Residues, ends and D or L forms follow the SMILES beside them. No end group written: not given here.

Assays:
[1] = tested on: MAS; set-up: method as in ref [8] (a number printed in a supplementary file, which may have a reference list of its own: not looked up in the article's list); conditions: Bovine MAS; ref [8]; cited from earlier work
[2] = biological target: T1, MAS (Homo sapiens, UniProt P04201); test: FLIPR calcium assay, induced myc-tagged WT MAS HEK293 stable cell line; format: cell-based; conditions: for EC50, Calcium assay / EC50: induced cells
T1 construct: expressed in transfected cells
T1 sequence (P04201 1-325): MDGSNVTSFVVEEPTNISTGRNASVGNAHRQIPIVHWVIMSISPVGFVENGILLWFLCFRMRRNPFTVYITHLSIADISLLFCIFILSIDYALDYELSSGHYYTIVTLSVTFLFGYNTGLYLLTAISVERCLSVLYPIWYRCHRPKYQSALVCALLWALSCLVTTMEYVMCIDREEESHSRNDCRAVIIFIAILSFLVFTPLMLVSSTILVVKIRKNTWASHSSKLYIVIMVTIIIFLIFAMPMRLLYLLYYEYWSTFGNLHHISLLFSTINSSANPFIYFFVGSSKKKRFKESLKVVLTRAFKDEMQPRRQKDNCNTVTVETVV
Protocol: The assay was performed using FLIPR Calcium 5 assay kit (Molecular Devices, Sunnyvale, CA). For calcium measurements, cells at a density of 125,000 cells/well in 100 µl medium were seeded onto a 96-well clear bottom black cell culture plate that was pre-coated with poly-L-lysine. In the calcium assays the cell density of 125,000 cells/well was consistently maintained to minimize variability between independent experiments. The cells were seeded in induction media to induce MAS expression or in complete media for negative controls. The plate was maintained in a cell culture incubator for 26–28 h. The cells were then serum starved for 2 h by replacing the medium with 100 µl of serum free DMEM. In the case of pre-treatment with pan-inhibitor of G protein signaling, BIM-46187, the cells were initially serum starved for 1 h by replacing the medium with 50 µl of serum free DMEM. After 1 h, 50 µl of BIM-46187 was added to the cells to a final concentration of 25 µM and treated for another 1 h. Following serum starvation, 100 µl of calcium sensitive dye along with 2x (2.5 mM final concentration) probenecid (Life Technologies, Grand Island, NY) was added to the cells. During this step, AR-inverse agonist or BIM-46187 was also added at desired concentrations to the calcium dye preparation in case of experiments where cells were pre-treated with these inhibitors. The cells were maintained for one hour in the cell culture incubator. Following this, the 96-well plate containing cells loaded with calcium dye and a U-bottom 96-well plate containing ligands at 5x the desired final concentration in D-PBS (1.47 mM KH2PO4, 138 mM NaCl, 2.67 mM KCl, 8.1 mM Na2HPO4, pH 7.3) were allowed to equilibrate for 15 min on a FlexStation 3 instrument (Molecular Devices, Sunnyvale, CA) at 37°C. The plates were further equilibrated on the instrument for 5 min with the lids removed from the plates. The instrument was programmed in FLEX mode to add ligands (50 µl at 5x concentration) to the cells and to monitor the fluorescence before and after adding the ligands. In re-stimulation and antagonism assays the instrument is programmed to add 35 µl of first ligand followed by addition of the second ligand (35 µl) after 10 min. […] Therefore, when using 5x ligand stock the maximum AR-agonist concentration that could be tested was 10 µM.
In the calcium assays, the maximum response and minimum response values in relative fluorescence units (RFU) were extracted by subtracting the corresponding baseline value wherein baseline is defined as the average fluorescence of all time points before addition of ligand.
(§1) The kinetic parameter t1/2 (time taken to reach half of the maximum response) was determined using SoftMax Pro software supplied with the FlexStation 3 instrument (Molecular Devices, Sunnyvale, CA).
For re-stimulation assays, the data is expressed as the percentage of maximum agonist stimulation to allow for ready comparison between individual experiments. […] For all the assays, the EC50 and IC50 values were estimated by fitting the data to a three parameter dose response using GraphPad Prism software (GraphPad, La Jolla, CA).

[3] = biological target: T1, MAS; test: HTRF IP1 assay, induced myc-tagged WT MAS HEK293 stable cell line; format: cell-based; conditions: WT MAS, induced cells
Protocol: IP1 levels in the cells were measured using the IP-One Tb kit (Cisbio US, Bedford, MA). For the assay, cells were seeded onto a 384-well low volume white cell culture plate at a density of 25,000 cells/well in 20 µl of induction or complete medium. In the IP1 assays the cell density of 25,000 cells/well was consistently maintained to minimize variability between independent experiments. The cells were maintained in a cell culture incubator for 26–28 h. The cells were then serum starved for 2 h by replacing the medium with 7 µl of serum free DMEM/F-12. During this step, 7 µl of serum free DMEM/F-12 was also added to the wells to which IP1 standards would be subsequently added. […] The cells were then placed in the cell culture incubator for 4 h. Later, 3 µl each of d2-labeled IP1 and anti-IP1 cryptate Tb conjugated antibody diluted in lysis buffer was added sequentially to all the wells and the plate was incubated overnight in the dark at room temperature. Time-resolved ratiometric fluorescence emission measurements at 665 nm and 620 nm were taken after excitation at 343 nm on FlexStation 3 instrument.
For the IP1 assay, a standard curve was generated using the 4-Parameter logistic equation fit of the HTRF readings of IP1 standards using the SoftMax Pro software. The IP1 concentrations in the experiments were extrapolated based on the standard curve parameters. […] For all the assays, the EC50 and IC50 values were estimated by fitting the data to a three parameter dose response using GraphPad Prism software (GraphPad, La Jolla, CA).

[4] = biological target: T1, MAS; test: SRF-RE luciferase reporter assay (Gα12-dependent), induced WT MAS stable cell line; format: cell-based; conditions: induced cells
Protocol: The luciferase assay was performed using pGL4 luciferase reporter vectors and Dual-Glo Luciferase Assay System (Promega, Madison, WI). For this assay, the inducible MAS stable cells were initially plated in a 10 cm plate and left overnight in a cell culture incubator. The following day the cells were transfected with 5 µg of pGL4.34 plasmid containing serum response factor response element (SRF-RE)-firefly luciferase reporter gene and 1 µg of pGL4.73 plasmid containing renilla luciferase (as a transfection efficiency control). […] After 8 h of transfection and induction, the cells were seeded onto a 96-well clear bottom black cell culture plate (pre-coated with poly-L-lysine) at a density of 125,000 cells/well in 100 µl of minimal medium (with reduced serum of 0.5%). The plate was maintained in a cell culture incubator for 18–20 h. At this point 50 µl of media in the cells was replaced with 50 µl of serum free media containing ligands at 2x the desired concentration and incubated for an additional 6 h. Finally, the luciferase activity in the cells was measured according the protocol provided by the manufacturer. The luminescence measurements (RLU) in the cells were obtained on FlexStation 3 instrument.
For re-stimulation assays, the data is expressed as the percentage of maximum agonist stimulation to allow for ready comparison between individual experiments. […] In the luciferase assay, the luminescence measurements (RLU) are presented as a ratio of firefly to renilla luciferase activity. For all the assays, the EC50 and IC50 values were estimated by fitting the data to a three parameter dose response using GraphPad Prism software (GraphPad, La Jolla, CA).

[5] = biological target: T2, untagged WT MAS (Homo sapiens, UniProt P04201); test: Calcium assay, untagged WT MAS inducible HEK293 stable cell line; format: cell-based; conditions: up to 250 µM
T2 construct: expressed in transfected cells
T2 sequence (P04201 1-325): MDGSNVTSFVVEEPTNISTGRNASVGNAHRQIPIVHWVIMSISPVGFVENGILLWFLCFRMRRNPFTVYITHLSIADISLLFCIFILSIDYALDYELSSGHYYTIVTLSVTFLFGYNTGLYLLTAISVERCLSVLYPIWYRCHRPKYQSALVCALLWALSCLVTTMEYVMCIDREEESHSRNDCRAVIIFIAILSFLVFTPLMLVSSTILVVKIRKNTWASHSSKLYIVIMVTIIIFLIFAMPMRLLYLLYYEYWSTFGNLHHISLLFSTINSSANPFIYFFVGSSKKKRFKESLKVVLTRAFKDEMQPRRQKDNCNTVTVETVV
Protocol: The assay was performed using FLIPR Calcium 5 assay kit (Molecular Devices, Sunnyvale, CA). For calcium measurements, cells at a density of 125,000 cells/well in 100 µl medium were seeded onto a 96-well clear bottom black cell culture plate that was pre-coated with poly-L-lysine. In the calcium assays the cell density of 125,000 cells/well was consistently maintained to minimize variability between independent experiments. The cells were seeded in induction media to induce MAS expression or in complete media for negative controls. The plate was maintained in a cell culture incubator for 26–28 h. The cells were then serum starved for 2 h by replacing the medium with 100 µl of serum free DMEM. In the case of pre-treatment with pan-inhibitor of G protein signaling, BIM-46187, the cells were initially serum starved for 1 h by replacing the medium with 50 µl of serum free DMEM. After 1 h, 50 µl of BIM-46187 was added to the cells to a final concentration of 25 µM and treated for another 1 h. Following serum starvation, 100 µl of calcium sensitive dye along with 2x (2.5 mM final concentration) probenecid (Life Technologies, Grand Island, NY) was added to the cells. During this step, AR-inverse agonist or BIM-46187 was also added at desired concentrations to the calcium dye preparation in case of experiments where cells were pre-treated with these inhibitors. The cells were maintained for one hour in the cell culture incubator. Following this, the 96-well plate containing cells loaded with calcium dye and a U-bottom 96-well plate containing ligands at 5x the desired final concentration in D-PBS (1.47 mM KH2PO4, 138 mM NaCl, 2.67 mM KCl, 8.1 mM Na2HPO4, pH 7.3) were allowed to equilibrate for 15 min on a FlexStation 3 instrument (Molecular Devices, Sunnyvale, CA) at 37°C. The plates were further equilibrated on the instrument for 5 min with the lids removed from the plates. The instrument was programmed in FLEX mode to add ligands (50 µl at 5x concentration) to the cells and to monitor the fluorescence before and after adding the ligands. […]

[6] = tested on: MAS; set-up: method as in ref [2] (a number printed in a supplementary file, which may have a reference list of its own: not looked up in the article's list); conditions: Mouse MAS; ref [2]; cited from earlier work
[7] = tested on: MAS; set-up: method as in ref [2] (a number printed in a supplementary file, which may have a reference list of its own: not looked up in the article's list); conditions: Mouse MAS; ref [2]; cited from earlier work; remark: listed apart in the source
[8] = biological target: T3, MAS F112A mutant (Homo sapiens, UniProt P04201, F112A); test: Calcium assay, F112A MAS mutant stable cell line; format: cell-based
T3 construct: expressed in transfected cells
T3 sequence (P04201 1-325 F112A): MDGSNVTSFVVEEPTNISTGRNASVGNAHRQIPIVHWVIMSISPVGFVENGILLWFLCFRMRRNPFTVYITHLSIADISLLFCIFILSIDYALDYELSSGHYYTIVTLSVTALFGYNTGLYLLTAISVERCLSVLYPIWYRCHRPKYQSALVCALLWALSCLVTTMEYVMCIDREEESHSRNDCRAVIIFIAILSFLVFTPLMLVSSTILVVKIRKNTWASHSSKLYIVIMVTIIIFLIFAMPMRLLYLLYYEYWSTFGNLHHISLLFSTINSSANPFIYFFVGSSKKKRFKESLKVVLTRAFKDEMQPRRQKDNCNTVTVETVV
Protocol: (§2) The assay was performed using FLIPR Calcium 5 assay kit (Molecular Devices, Sunnyvale, CA). For calcium measurements, cells at a density of 125,000 cells/well in 100 µl medium were seeded onto a 96-well clear bottom black cell culture plate that was pre-coated with poly-L-lysine. In the calcium assays the cell density of 125,000 cells/well was consistently maintained to minimize variability between independent experiments. The cells were seeded in induction media to induce MAS expression or in complete media for negative controls. The plate was maintained in a cell culture incubator for 26–28 h. The cells were then serum starved for 2 h by replacing the medium with 100 µl of serum free DMEM. In the case of pre-treatment with pan-inhibitor of G protein signaling, BIM-46187, the cells were initially serum starved for 1 h by replacing the medium with 50 µl of serum free DMEM. After 1 h, 50 µl of BIM-46187 was added to the cells to a final concentration of 25 µM and treated for another 1 h. Following serum starvation, 100 µl of calcium sensitive dye along with 2x (2.5 mM final concentration) probenecid (Life Technologies, Grand Island, NY) was added to the cells. During this step, AR-inverse agonist or BIM-46187 was also added at desired concentrations to the calcium dye preparation in case of experiments where cells were pre-treated with these inhibitors. The cells were maintained for one hour in the cell culture incubator. […] The instrument was programmed in FLEX mode to add ligands (50 µl at 5x concentration) to the cells and to monitor the fluorescence before and after adding the ligands. […]
as §1
(§3) For re-stimulation assays, the data is expressed as the percentage of maximum agonist stimulation to allow for ready comparison between individual experiments. […]

[9] = biological target: T4, MAS I191A mutant (Homo sapiens, UniProt P04201, I191A); test: Calcium assay, I191A MAS mutant stable cell line; format: cell-based
T4 construct: expressed in transfected cells
T4 sequence (P04201 1-325 I191A): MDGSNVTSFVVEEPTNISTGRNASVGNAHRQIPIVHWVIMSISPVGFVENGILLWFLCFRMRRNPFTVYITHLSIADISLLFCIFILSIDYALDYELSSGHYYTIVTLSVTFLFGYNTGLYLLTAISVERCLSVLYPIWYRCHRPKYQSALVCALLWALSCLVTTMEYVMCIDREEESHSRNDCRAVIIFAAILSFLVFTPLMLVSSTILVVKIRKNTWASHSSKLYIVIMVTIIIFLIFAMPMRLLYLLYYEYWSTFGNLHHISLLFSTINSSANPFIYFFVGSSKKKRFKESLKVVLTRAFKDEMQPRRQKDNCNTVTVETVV
Protocol: as §2, §1, §3

[10] = biological target: T5, MAS M244A mutant (Homo sapiens, UniProt P04201, M244A); test: Calcium assay, M244A MAS mutant stable cell line; format: cell-based
T5 construct: expressed in transfected cells
T5 sequence (P04201 1-325 M244A): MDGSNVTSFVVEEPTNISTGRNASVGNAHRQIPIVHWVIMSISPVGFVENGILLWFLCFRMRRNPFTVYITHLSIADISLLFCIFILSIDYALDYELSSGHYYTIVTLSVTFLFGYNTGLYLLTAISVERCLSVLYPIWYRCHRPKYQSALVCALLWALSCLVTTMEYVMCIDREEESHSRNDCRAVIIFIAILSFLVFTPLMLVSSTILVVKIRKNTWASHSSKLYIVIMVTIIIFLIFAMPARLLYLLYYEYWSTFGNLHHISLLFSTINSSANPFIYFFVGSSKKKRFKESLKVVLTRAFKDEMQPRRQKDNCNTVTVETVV
Protocol: as §2, §1, §3

[11] = biological target: T6, MAS T270A mutant (Homo sapiens, UniProt P04201, T270A); test: Calcium assay, T270A MAS mutant stable cell line; format: cell-based
T6 construct: expressed in transfected cells
T6 sequence (P04201 1-325 T270A): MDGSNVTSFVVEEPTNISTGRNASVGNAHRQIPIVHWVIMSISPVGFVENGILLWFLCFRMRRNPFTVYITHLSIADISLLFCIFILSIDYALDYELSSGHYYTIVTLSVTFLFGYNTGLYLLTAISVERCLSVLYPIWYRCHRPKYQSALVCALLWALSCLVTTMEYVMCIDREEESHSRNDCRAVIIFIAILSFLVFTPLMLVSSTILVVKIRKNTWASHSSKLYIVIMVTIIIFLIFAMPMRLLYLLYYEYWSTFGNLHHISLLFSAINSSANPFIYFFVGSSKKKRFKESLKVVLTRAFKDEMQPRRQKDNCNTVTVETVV
Protocol: as §2, §1, §3

[12] = tested on: MAS; conditions: Mouse MAS; ref [2,5]; cited from earlier work
[13] = tested on: MAS; set-up: method as in ref [12] (a number printed in a supplementary file, which may have a reference list of its own: not looked up in the article's list); conditions: Rat MAS; ref [12]; read-out: EC50 (Calcium assay); cited from earlier work
[14] = biological target: T7, myc-tagged wild-type human MAS receptor (human) (UniProt P04201)
T7 sequence: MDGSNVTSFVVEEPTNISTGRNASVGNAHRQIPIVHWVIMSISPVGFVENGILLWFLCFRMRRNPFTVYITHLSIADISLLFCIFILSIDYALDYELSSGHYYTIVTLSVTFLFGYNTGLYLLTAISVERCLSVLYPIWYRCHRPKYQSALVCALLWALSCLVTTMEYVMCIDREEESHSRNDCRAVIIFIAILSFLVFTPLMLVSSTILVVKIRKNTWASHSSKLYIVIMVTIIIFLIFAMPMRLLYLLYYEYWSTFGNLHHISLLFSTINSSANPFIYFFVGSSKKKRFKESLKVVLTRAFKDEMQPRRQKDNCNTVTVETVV

[15] = WT MAS, t1/2 at 1000 µM (1 mM) ligand concentration
[16] = WT MAS, t1/2 at 100 µM ligand concentration

Compound: CCNC(=O)NS(=O)(=O)c1sc(CC(C)C)cc1-c1ccc(Cn2c(-c3ccccc3)nc(OC)c2C=O)cc1 [AVE 0991]
- Remarks: Ang(1-7)-like effects [1]: Mimics Ang(1-7) effects

Compound: CC[C@H](C)[C@H](NC(=O)[C@H](Cc1ccc(O)cc1)NC(=O)[C@@H](NC(=O)[C@H](CCCNC(=N)N)NC(=O)[C@@H](N)CC(=O)O)C(C)C)C(=O)N[C@@H](Cc1c[nH]cn1)C(=O)N1CCC[C@H]1C(=O)O [Ang(1–7), angiotensin (1–7)]
- EC50, Calcium assay ([2]; WT MAS): cbd
- t1/2, Calcium assay [2, 15]: 11.8 ± 0.6 s
- EC50, IP1 assay [3]: cbd
- EC50, Luciferase assay [4]: cbd
- Calcium response [5]: no response
- Type (Arachidonic acid release assay) [6]: Endogenous agonist
- Effect in aortic rings [7]: Vasodilator effect in aortic rings

Compound: CC[C@H](C)[C@H](NC(=O)[C@H](Cc1ccc(O)cc1)NC(=O)[C@@H](NC(=O)[C@H](CCCNC(=N)N)NC(=O)[C@@H](N)CC(=O)O)C(C)C)C(=O)N[C@@H](Cc1c[nH]cn1)C(=O)N1CCC[C@H]1C(N)=O [Ang(1–7)-amide]
- EC50, Calcium assay ([2]; WT MAS): cbd
- t1/2, Calcium assay [2, 15]: 11.4 ± 1.0 s

Compound: CC[C@H](C)[C@H](NC(=O)[C@H](Cc1ccc(O)cc1)NC(=O)[C@@H](N)C(C)C)C(=O)N[C@@H](Cc1c[nH]cn1)C(=O)N1CCC[C@H]1C(=O)N[C@@H](Cc1ccccc1)C(N)=O [AngIV-amide]
- EC50 ([2]; WT MAS): 24.4 ± 1.5 µM
- t1/2, Calcium assay [2, 16]: 13.7 ± 0.9 s

Compound: N[C@@H](CSSC[C@H](N)C(=O)N1CCn2cc(-c3ccccc3)nc2[C@@H]1CC1CCCCC1)C(=O)N1CCn2cc(-c3ccccc3)nc2[C@@H]1CC1CCCCC1 [BIM-46187]
- Effect of pre-treatment on AR-agonist calcium signal ([2]; 25 µM pre-treatment): complete loss of signal

Compound: CC(C)C[C@H](NC(=O)[C@@H](N)Cc1ccccc1)C(=O)N[C@@H](Cc1ccccc1)C(=O)N[C@@H](CCC(N)=O)C(=O)N1CCC[C@H]1C(=O)N[C@@H](CCC(N)=O)C(=O)N[C@@H](CCCN=C(N)N)C(=O)N[C@@H](Cc1ccccc1)C(N)=O [NPFF, Neuropeptide FF]
- t1/2 (time taken to reach half of the maximal calcium response), Calcium assay ([2]; WT MAS): 8.5 ± 0.3 s
- t1/2, Calcium assay [8]: 7.7±2.9^#∧ s
- t1/2, Calcium assay [9]: 9.0 ± 0.4 s
- t1/2, Calcium assay [10]: cbd
- t1/2, Calcium assay [11]: 9.3±2.0^#∧ s

Compound: CC[C@H](C)[C@H](NC(=O)[C@H](Cc1ccc(O)cc1)NC(=O)[C@@H](NC(=O)[C@H](CCCN=C(N)N)NC(=O)CNC)C(C)C)C(=O)N[C@@H](Cc1c[nH]cn1)C(=O)N1CCC[C@H]1C(N)=O [[Sar^1]-Ang(1–7)-amide]
- EC50 ([2]; WT MAS): 193 ± 59 µM
- t1/2, Calcium assay [2, 16]: 18.2 ± 1.2 s

Compound: CC(C)C[C@H](NC(=O)[C@H](N)Cc1ccc(O)cc1)C(=O)N(C)[C@@H](Cc1ccccc1)C(=O)N[C@@H](CCC(N)=O)C(=O)N1CCC[C@H]1C(=O)N[C@@H](CCC(N)=O)C(=O)N[C@@H](CCCN=C(N)N)C(=O)N[C@@H](Cc1ccccc1)C(N)=O [[^DY^1] [^NMeF^3]-NPFF] (HELM PEPTIDE1{[dY].L.[meF].Q.P.Q.R.F.[am]}$$$$V2.0)
- EC50 ([2]; WT MAS): 2.4 ± 0.3 µM

Compound: A779: Ang(1–7) analog, sequence DRVYIH^DA (DRVYIH[dA])
- EC50, Calcium assay ([2]; WT MAS): cbd
- t1/2, Calcium assay [2, 16]: cbd ^#
- Remarks: effect on Ang(1-7) response [12]: Inhibits Ang(1-7) response

Compound: MBP7: peptide agonist, sequence KAQLRRLS
- EC50 [13]: 36.4 µM

Compound: NPFF-C (peptide)
- EC50, calcium assay, induced WT MAS stable HEK293 cells [14]: 3 µM
